The target in assay [1] is T1, Protein cereblon/Tyrosine-protein kinase ABL1/Breakpoint cluster region protein (Homo sapiens, UniProt P00519+P11274+Q96SW2). Description: Protac activity at CRBN/BCR-ABL in human K562 cells assessed as increase in BCR-ABL degradation at 5 nM by Western blotting analysis. The format is cell-based. For orientation: In western blotting, separated proteins are transferred to a membrane and probed.

In assay [2] the target is T1, Protein cereblon/Tyrosine-protein kinase ABL1/Breakpoint cluster region protein. The assay can be described thus: Protac activity at CRBN/BCR-ABL in human K562 cells assessed as induction of c-ABL degradation at 100 nM pretreated with MLN4924 for 2 hrs followed by compound addition measured after 8 hrs by Western blotting analysis. The format is cell-based. The settings on record: time 10.0 hrs.

In assay [3] the test system is Protein cereblon/Tyrosine-protein kinase ABL1/Breakpoint cluster region protein (Mus musculus), P00519+P11274+Q8C7D2 [T315M]. The assay can be described thus: Protac activity at CRBN/asciminib resistance BCR-ABL T315M mutant in mouse 32D cells assessed as increase in BCR-ABL degradation at 1 to 1000 nM by Western blotting analysis. Format: cell-based. The settings on record: dose 1-1000 nM.

Assay [4] deals with T1, Protein cereblon/Tyrosine-protein kinase ABL1/Breakpoint cluster region protein. Description: Protac activity at CRBN/BCR-ABL in human K562 cells assessed as c-ABL turnover rate in presence of cycloheximide by Western blotting analysis. Format: cell-based.
For assay [5], the target named is T2, Bcr/Abl fusion protein (Homo sapiens) (UniProt P00519+P11274). The assay can be described thus: Inhibition of BCR-ABL phosphorylation at Tyr245 residue in human K562 cells at 0.3 to 100 nM incubated for 16 hrs by Western blotting analysis. Format: cell-based. The settings on record: dose 0.3-100 nM.
Assay [6] deals with Protein cereblon/Tyrosine-protein kinase ABL1/Breakpoint cluster region protein (Mus musculus), P00519+P11274+Q8C7D2 [Y253H/E255V]. The assay can be described thus: Protac activity at CRBN/BCR-ABL Y253H/E255V double mutant in mouse 32D cells assessed as increase in p-BCR-ABL degradation at 1 to 1000 nM by Western blotting analysis. The settings on record: dose 1-1000 nM. The format is cell-based.

Assay [7] has as its target T1, Protein cereblon/Tyrosine-protein kinase ABL1/Breakpoint cluster region protein. The assay can be described thus: Protac activity at CRBN/BCR-ABL in human K562 cells assessed as increase in BCR-ABL degradation at 100 nM incubated for 6 hrs followed by compound washout measured upto 96 hrs by Western blotting analysis. The format is cell-based.
Assay [8] relates to Protein cereblon/Tyrosine-protein kinase ABL1/Breakpoint cluster region protein (Mus musculus), P00520+Q6PAJ1+Q8C7D2 [E255V]. The assay can be described thus: Protac activity at CRBN/BCR-ABL E255V mutant in mouse 32D cells assessed as increase in BCR-ABL degradation at 1 to 1000 nM by Western blotting analysis. Format: cell-based. The settings on record: dose 1-1000 nM.
Assay [9] addresses T1, Protein cereblon/Tyrosine-protein kinase ABL1/Breakpoint cluster region protein. Description: Protac activity at CRBN/BCR-ABL in human K562 cells assessed as induction of BCR-ABL degradation at 100 nM by Western blotting analysis. Format: cell-based. The settings on record: time 4.0 hrs, TDE = time-dependent effect.
The test system of a further assay is U-937. Description: Antiproliferative activity against human U-937 cells assessed as inhibition of cell growth incubated for 2 days by CCK8 assay. Format: functional, cell-based. The settings on record: time 2.0 day. A general note: Formazan colour is commonly taken as a measure of viable cells.
Assay [10] deals with Protein cereblon/Tyrosine-protein kinase ABL1/Breakpoint cluster region protein (Mus musculus), P00519+P11274+Q8C7D2 [K294E]. The assay can be described thus: Protac activity at CRBN/asciminib resistance BCR-ABL K294E mutant in mouse 32D cells assessed as increase in BCR-ABL degradation at 1 to 1000 nM by Western blotting analysis. The format is cell-based. The settings on record: dose 1-1000 nM.

The target of assay [11] is T2, Bcr/Abl fusion protein (Homo sapiens). Description: Inhibition of BCR-ABL phosphorylation at Tyr245 residue in human K562 cells at 100 nM by Western blotting analysis. The format is cell-based. The settings on record: time <= 18.0 hrs, TDE = time-dependent effect.
Assay [12] has as its system K562. The assay can be described thus: Down regulation of IKZF3 expression in human K562 cells at 100 nM measured after 16 hrs by LC-MS analysis. The format is functional, cell-based.
For assay [13], the target named is T1, Protein cereblon/Tyrosine-protein kinase ABL1/Breakpoint cluster region protein. The assay can be described thus: Protac activity at CRBN/BCR-ABL in human K562 cells assessed as induction of c-ABL degradation at 100 nM pretreated with lenalidomide for 2 hrs followed by compound addition measured after 8 hrs by Western blotting analysis. The format is cell-based. The settings on record: time 10.0 hrs.

The subject of assay [14] is Protein cereblon/Tyrosine-protein kinase ABL1/Breakpoint cluster region protein (Mus musculus), P00519+P11274+Q8C7D2 [P223S]. The assay can be described thus: Protac activity at CRBN/asciminib resistance BCR-ABL P223S mutant in mouse 32D cells assessed as increase in BCR-ABL degradation at 1 to 1000 nM by Western blotting analysis. The format is cell-based. The settings on record: dose 1-1000 nM.

In assay [15] the target is T1, Protein cereblon/Tyrosine-protein kinase ABL1/Breakpoint cluster region protein. The assay can be described thus: Protac activity at CRBN/BCR-ABL in human K562 cells assessed as induction of c-ABL degradation at 100 nM pretreated with asciminib for 2 hrs followed by compound addition measured after 8 hrs by Western blotting analysis. The format is cell-based. The settings on record: time 10.0 hrs.

The test system of assay [16] is K562. The assay can be described thus: Down regulation of ZFP91 expression in human K562 cells at 100 nM measured after 16 hrs by LC-MS analysis. Format: functional, cell-based.
The target of assay [17] is T3, Signal transducer and activator of transcription 5A (Homo sapiens) (UniProt P42229).
T3 sequence (whole entry): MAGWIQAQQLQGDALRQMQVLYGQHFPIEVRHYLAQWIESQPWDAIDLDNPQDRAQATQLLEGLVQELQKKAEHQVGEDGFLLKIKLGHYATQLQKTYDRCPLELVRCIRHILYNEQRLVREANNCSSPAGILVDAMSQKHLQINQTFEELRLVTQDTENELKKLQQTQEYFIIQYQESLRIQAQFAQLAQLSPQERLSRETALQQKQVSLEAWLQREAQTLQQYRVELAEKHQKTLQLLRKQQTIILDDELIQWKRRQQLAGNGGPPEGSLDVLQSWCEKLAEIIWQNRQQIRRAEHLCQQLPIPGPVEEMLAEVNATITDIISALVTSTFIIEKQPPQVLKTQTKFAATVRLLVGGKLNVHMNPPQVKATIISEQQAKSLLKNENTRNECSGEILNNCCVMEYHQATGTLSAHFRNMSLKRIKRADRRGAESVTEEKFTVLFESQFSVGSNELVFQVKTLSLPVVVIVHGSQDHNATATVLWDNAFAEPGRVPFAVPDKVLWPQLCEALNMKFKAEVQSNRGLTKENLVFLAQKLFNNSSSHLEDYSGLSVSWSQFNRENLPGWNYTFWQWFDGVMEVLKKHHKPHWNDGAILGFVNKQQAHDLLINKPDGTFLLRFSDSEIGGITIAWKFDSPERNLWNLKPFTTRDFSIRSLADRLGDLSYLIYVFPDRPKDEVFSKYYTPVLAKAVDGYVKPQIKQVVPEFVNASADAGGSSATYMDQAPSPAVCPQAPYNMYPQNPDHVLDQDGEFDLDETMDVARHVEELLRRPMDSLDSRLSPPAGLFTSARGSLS
The assay can be described thus: Inhibition of STAT5 phosphorylation at Tyr694 residue in human K562 cells at 0.3 to 100 nM incubated for 16 hrs by Western blotting analysis. The settings on record: dose 0.3-100 nM. Format: cell-based.

The target in assay [18] is T1, Protein cereblon/Tyrosine-protein kinase ABL1/Breakpoint cluster region protein. The assay can be described thus: Protac activity at CRBN/BCR-ABL in human K562 cells assessed as BCR-ABL turnover rate in presence of cycloheximide by Western blotting analysis. The format is cell-based.
The target is the same in assay [19]. Description: Protac activity at CRBN/BCR-ABL in human K562 cells assessed as induction of BCR-ABL degradation at 100 nM pretreated with MLN4924 for 2 hrs followed by compound addition measured after 8 hrs by Western blotting analysis. Format: cell-based. The settings on record: time 10.0 hrs.

Molecules are shown by their SMILES. Activity calls are given as the source filed them. The calls are words filed in the database; no cut-off is given here.

T1 sequence (P00519 whole entry, looked up): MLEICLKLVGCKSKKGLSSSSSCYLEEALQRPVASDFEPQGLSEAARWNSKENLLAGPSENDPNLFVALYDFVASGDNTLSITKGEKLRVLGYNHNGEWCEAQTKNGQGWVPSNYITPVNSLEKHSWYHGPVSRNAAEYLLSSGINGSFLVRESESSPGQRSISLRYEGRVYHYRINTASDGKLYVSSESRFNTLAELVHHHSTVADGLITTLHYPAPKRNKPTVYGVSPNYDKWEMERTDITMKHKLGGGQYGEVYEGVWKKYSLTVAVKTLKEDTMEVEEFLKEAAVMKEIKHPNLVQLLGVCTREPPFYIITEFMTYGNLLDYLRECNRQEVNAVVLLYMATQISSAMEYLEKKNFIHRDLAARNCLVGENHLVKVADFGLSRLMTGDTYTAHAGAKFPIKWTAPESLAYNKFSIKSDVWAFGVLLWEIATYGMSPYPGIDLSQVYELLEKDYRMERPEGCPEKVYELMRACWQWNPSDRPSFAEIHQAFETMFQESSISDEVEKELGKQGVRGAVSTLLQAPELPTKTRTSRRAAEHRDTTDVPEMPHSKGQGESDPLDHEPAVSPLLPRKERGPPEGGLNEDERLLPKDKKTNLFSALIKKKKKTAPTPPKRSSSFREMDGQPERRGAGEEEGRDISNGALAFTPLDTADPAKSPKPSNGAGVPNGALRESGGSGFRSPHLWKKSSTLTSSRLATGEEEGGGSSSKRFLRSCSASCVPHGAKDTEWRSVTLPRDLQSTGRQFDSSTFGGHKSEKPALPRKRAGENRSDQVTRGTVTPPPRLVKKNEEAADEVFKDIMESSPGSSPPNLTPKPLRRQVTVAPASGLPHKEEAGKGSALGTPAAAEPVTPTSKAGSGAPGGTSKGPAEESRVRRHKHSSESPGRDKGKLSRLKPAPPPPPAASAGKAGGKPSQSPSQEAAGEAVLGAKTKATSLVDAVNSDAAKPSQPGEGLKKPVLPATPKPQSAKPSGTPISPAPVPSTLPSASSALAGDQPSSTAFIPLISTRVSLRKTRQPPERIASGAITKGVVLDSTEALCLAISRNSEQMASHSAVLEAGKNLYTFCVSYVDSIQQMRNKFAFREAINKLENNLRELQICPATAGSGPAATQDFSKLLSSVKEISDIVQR
T1 sequence (P11274 whole entry, looked up): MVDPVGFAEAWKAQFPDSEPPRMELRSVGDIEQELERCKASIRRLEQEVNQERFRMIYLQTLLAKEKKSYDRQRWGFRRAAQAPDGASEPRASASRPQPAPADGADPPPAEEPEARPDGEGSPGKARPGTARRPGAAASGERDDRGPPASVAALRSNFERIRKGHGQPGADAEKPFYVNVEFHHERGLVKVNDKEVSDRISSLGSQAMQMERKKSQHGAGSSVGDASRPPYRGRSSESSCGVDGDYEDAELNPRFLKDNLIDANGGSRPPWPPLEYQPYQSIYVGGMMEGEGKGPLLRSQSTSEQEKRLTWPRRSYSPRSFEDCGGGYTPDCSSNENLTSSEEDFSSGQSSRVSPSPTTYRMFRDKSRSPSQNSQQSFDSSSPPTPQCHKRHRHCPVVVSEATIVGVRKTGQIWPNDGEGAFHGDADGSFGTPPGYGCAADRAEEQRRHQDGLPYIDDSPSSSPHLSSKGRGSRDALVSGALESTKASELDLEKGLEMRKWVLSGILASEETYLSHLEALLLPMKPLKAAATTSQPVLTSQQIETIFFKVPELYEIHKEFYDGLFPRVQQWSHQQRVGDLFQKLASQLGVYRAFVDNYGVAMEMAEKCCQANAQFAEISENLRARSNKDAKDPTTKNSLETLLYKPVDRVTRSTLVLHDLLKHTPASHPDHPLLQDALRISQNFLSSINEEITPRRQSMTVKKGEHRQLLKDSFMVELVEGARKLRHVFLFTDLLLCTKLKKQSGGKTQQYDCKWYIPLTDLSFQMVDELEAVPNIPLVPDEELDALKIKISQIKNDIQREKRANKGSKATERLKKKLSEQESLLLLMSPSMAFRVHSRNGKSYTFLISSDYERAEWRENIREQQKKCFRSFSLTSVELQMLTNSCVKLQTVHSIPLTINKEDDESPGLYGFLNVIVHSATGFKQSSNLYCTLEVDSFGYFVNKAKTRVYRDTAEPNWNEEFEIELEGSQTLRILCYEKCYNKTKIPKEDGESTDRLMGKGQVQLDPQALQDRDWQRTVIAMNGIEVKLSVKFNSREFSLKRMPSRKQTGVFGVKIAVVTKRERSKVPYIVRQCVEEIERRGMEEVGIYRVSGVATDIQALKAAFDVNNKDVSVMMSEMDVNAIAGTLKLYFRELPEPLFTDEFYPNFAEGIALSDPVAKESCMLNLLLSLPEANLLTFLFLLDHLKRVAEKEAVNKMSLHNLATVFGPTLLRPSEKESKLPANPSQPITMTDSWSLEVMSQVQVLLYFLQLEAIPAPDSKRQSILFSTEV
T1 sequence (Q96SW2 whole entry, looked up): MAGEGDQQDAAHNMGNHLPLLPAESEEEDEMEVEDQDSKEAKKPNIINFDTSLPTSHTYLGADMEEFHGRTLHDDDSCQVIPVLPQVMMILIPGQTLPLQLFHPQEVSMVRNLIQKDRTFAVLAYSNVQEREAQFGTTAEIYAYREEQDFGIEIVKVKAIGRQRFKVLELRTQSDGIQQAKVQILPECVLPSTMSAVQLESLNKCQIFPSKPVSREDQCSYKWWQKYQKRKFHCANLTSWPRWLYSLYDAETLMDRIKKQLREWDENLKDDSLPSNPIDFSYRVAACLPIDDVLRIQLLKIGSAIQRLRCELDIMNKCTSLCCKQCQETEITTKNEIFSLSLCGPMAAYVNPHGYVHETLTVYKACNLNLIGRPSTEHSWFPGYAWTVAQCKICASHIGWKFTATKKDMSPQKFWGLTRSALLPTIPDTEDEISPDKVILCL
T2 sequence (P00519 whole entry, looked up, the tested form may be a part): as the sequence (P00519 whole entry, looked up) above
T2 sequence (P11274 whole entry, looked up, the tested form may be a part): as the sequence (P11274 whole entry, looked up) above

On to `O=C1CCC(N2Cc3c(SCCCCCCN4CCN(C5CCN(c6ncc(C(=O)Nc7ccc(OC(F)(F)Cl)cc7)cc6-c6ccn[nH]6)CC5)CC4)cccc3C2=O)C(=O)N1` (stereo not given), for which the Activity was 81.8% in assay [1] and “Tde” in [9]. The result (in assay [2]; in assay [7]; in the assay with U-937; in assay [13]; in assay [15]; in [19]) was inactive. In addition, the result (in assay [3]; in assay [4]; in assay [6]; in [8]; in [10]; in the assay with K562 [12]) was Active. In addition, the result (in [14]; with K562 [16]; in assay [18]) was Active. The inhibition entry in assay [5] and in [17] was “Active” in each case. Besides, in assay [11], the inhibition entry was “Tde”.

The values are drawn from ChEMBL document CHEMBL5247625, “Discovery and characterization of novel potent BCR-ABL degraders by conjugating allosteric inhibitor” (Eur J Med Chem, 2022).
